This is an account of results in PMC7534336, “New classes of potent heparanase inhibitors from ligand-based virtual screening” (Journal of Enzyme Inhibition and Medicinal Chemistry, 2020).

The structures appear in SMILES notation. Several values for one entry are separate records, joined by “and”; a condition that tells them apart may be missing. Identical values can stand only once. Like-named read-outs stand apart in the source and are kept apart here.

For orientation: inhibition means the relative decrease from the control value, in per cent. Read a high inhibition as strong suppression.

The subject of one assay is HT1080 cells. The experiment in a line: Matrigel cell invasion assay, HT1080. The conditions noted are these: 24 h of treatment; for inhibition at 10 µM: concentration tested 10 µM. It counts as cell-based, human. The method, then: (§1) Cells were pre-treated with the indicated drug concentrations in complete medium for 24 h. Then, cells were harvested, resuspended in serum-free medium, and transferred (2.5 × 10^4 cells per filter) to the upper chamber of 24-well Transwell plates (Costar, Corning Inc., Corning, NY) previously coated with Growth Factor Reduced Matrigel (BD Biosciences, San Jose, CA). The same drug concentration used for cell pre-treatment was added to both the upper and lower chambers. After 24 h of incubation, cells that invaded the Matrigel were stained with SRB and then counted through a microscope at 40× −100× magnification depending on cell density. Data were expressed as the % inhibition of cell invasion, with respect to cell invasion in the absence of drugs.

In assay [1] the test system is U2OS (osteosarcoma) cells. Kind of assay: proliferation assay (sulforhodamine B), U2OS. It counts as cell-based, human. The conditions noted are these: 72 h, range 10–0.2 µM, SRB, read-out: IC50, inhibition of cell proliferation. The method, then: (§2) HT1080 (fibrosarcoma), U87MG (glioblastoma), and U2OS (osteosarcoma) human cell lines were purchased from the American Type Culture Collection (ATCC; Manassas, VA) and maintained according to the manufacturer’s recommendations. Briefly, HT1080 and U87MG were grown in modified Eagle medium (Thermo Fisher Scientific), while U2OS cells were grown in McCoy’s 5a medium (Thermo Fisher Scientific), all supplemented with 10% FCS (Thermo Fisher Scientific), 100 U/mL penicillin, and 100 μg/mL streptomycin (Thermo Fisher Scientific) and 2 mM L-glutamine (Thermo Fisher Scientific). Cell lines were maintained at 37 °C with a humidified 5% CO2 atmosphere.
(§3) HT1080, U87MG, and U2OS exponentially growing cells were seeded into 96-well plates and then, 24 h later, treated for 72 h with several dilutions of test compounds in the range 10 − 0.2 μM. Inhibition of cell proliferation was measured by means of a classical sulforhodamine B (SRB) assay[40] performed in triplicate.

The target of another assay is human GS3 heparanase (Homo sapiens, UniProt Q9Y251). Kind of assay: fondaparinux assay of heparanase enzymatic activity (WST-1 colorimetric). It counts as biochemical. An excerpt:
To determine the activity of the heparanase inhibitors, a homogeneous assay based on the cleavage of the synthetic heparin oligosaccharide fondaparinux (Arixtra; Aspen) was used. The assay measures colorimetrically the appearance of the disaccharide product of heparanase-catalysed fondaparinux cleavage using the tetrazolium salt WST-1. The assay was essentially performed as described[39] with minor modifications. Briefly, Nunc 96-well (Thermo Fisher Scientific) plates were pre-treated with a solution of 4% BSA (bovine serum albumin, Sigma-Aldrich) in phosphate-buffered saline containing 0.05% Tween 20 (PBST), for 2 h at 37 °C, and then washed three times with PBST. […] The IC50 value for each compound was calculated by GraphPad software. Finally, the measurements were corrected by subtracting both the reagent background and the inner absorbance value of test compound.
Supporting Table S1 reports the structures of the fifty-five compounds purchased and tested, with information, for each compound, on the database from which it was retrieved, the reference inhibitor used to retrieve it and the similarity value with the reference inhibitor.
On the technique in general: Tetrazolium assays rely on reduction of a dye to a coloured formazan, in cell work by metabolically active cells.

Assay [2] relates to U87MG (glioblastoma) cells. Kind of assay: proliferation assay (sulforhodamine B), U87MG. The settings on record: 72 h, range 10–0.2 µM, SRB, read-out: IC50, inhibition of cell proliferation. The assay is classed as cell-based, human. The method, then:
as §2, §3

Assay [3] relates to HT1080 (fibrosarcoma) cells. Kind of assay: proliferation assay (sulforhodamine B), HT1080. It counts as cell-based, human. The conditions noted are these: HT1080, 72 h, range 10–0.2 µM, SRB, read-out: IC50, inhibition of cell proliferation. The method, then:
as §2, §3

A further assay has as its system U87MG cells. Kind of assay: Matrigel cell invasion assay, U87MG. It counts as cell-based, human. The settings on record: 24 h of treatment; for inhibition at 10 µM: concentration tested 10 µM. The method, then:
as §1

In the next assay the test system is U2OS cells. The experiment in a line: Matrigel cell invasion assay, U2OS. It counts as cell-based, human. The conditions noted are these: 24 h of treatment; for inhibition at 10 µM: concentration tested 10 µM. The method, then:
as §1

Assay [4] has as its system FGF-1, FGF-2, VEGF, MMP-9 and heparanase mRNA in HT1080 cells. The experiment in a line: real-time qPCR of angiogenesis-related genes and heparanase in HT1080 cells. The assay is classed as cell-based, human. The conditions noted are these: 1 µM, 24 h, q-PCR. The procedure: Total RNA was extracted from HT1080 cells, upon 24 h of treatment with test compounds (1 µM) and then retrotranscribed using the iScript Advanced cDNA Synthesis Kit for RT-qPCR (Bio-Rad Laboratories Inc., Hercules, CA) according to the manufacturer’s instructions. Real time quantitative PCR analysis was performed using SsoAdvanced Universal SYBR Green Supermix (Bio- Rad Laboratories Inc., Hercules, CA) and the following PrimePCR SYBR Green Assays: qHsaCID0015228 (heparanase), qHsaCED0002206 (FGF-1), qHsaCID0015510 (FGF-2), qHsaCID0011597 (MMP-9), and qHsaCED0043454 (VEGF-A) (Bio-Rad Laboratories Inc., Hercules, CA). The 7900HT Sequence Detection System instrument and software (Applied Biosystems) were used to quantify the relative expression of the target genes. Tests were performed in triplicate.
(Real-time PCR tracks product formation cycle by cycle.)

The next assay has as its target heparanase. The conditions noted are these: literature value of reference inhibitor 6; read-out: reported IC50; cited from earlier work.
Where [5] appears, read: fondaparinux assay on human GS3 heparanase, mean of triplicates, read-out: IC50 (µM) ± SD, heparanase inhibitory activity.

Chain of human GS3 heparanase (Q9Y251 other isoform, or with tags, fused parts or gaps): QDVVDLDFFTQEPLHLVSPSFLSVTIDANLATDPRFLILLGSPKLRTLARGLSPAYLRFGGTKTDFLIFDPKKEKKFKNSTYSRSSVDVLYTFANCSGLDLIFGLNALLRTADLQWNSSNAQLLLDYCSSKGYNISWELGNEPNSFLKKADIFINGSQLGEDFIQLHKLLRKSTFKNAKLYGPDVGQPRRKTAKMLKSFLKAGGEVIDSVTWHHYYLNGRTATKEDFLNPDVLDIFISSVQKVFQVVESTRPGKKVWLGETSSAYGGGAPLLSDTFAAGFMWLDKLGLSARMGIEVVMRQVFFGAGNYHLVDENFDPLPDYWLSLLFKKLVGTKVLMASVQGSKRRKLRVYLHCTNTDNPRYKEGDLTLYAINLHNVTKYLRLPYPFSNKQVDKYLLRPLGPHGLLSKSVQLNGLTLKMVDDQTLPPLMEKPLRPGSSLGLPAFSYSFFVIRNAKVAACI

For `O=C(Nc1cccc(-c2nc3ccccc3[nH]2)c1)c1ccc(Oc2ccc(C(=O)Nc3cccc(-c4nc5ccccc5[nH]4)c3)cc2)cc1` [Compound 29], the inhibition at 2.5 µM with HT1080 cells (Homo sapiens, HT-1080, concentration tested 2.5 µM) is 29 ± 4%; with U87MG cells (Homo sapiens, U-87 MG, concentration tested 2.5 µM) it was 15 ± 3%; in the assay with U2OS cells (Homo sapiens, U2OS, concentration tested 2.5 µM) it was 18 ± 3%. The IC50 was greater than 10 µM in assay [1] (Homo sapiens); < 0.5 µM and 0.38 µM on human GS3 heparanase (setting [5]); greater than 10 µM in assay [2] (Homo sapiens, U-87 MG); greater than 10 µM in assay [3] (Homo sapiens, HT-1080).

For `COc1ccc(C(=O)Nc2ccc(CNc3ccc(-c4nc5ccccc5[nH]4)cc3)cc2)cc1Br` [Compound 7, reference compound], the inhibition at 1 µM in the assay with HT1080 cells (Homo sapiens, HT-1080, concentration tested 1.0 µM) came to 88 ± 2%; in the assay with U87MG cells (Homo sapiens, U-87 MG, concentration tested 1.0 µM) it was 78 ± 3%; in the assay with U2OS cells (Homo sapiens, U2OS, concentration tested 1.0 µM), 82 ± 2%.

Regarding `O=C(O)c1ccc2c(c1)C(=O)N(c1ccc(NC(=O)c3cccc(C(=O)Nc4ccc(N5C(=O)c6ccc(C(=O)O)cc6C5=O)cc4Cl)c3)c(Cl)c1)C2=O` [Compound 63], the “Invasion assay inhibition (%) HT1080” value in the assay with HT1080 cells (concentration tested 2.5 µM) is reported as 39 ± 6%. Besides, the IC50 in [1], in [2] and in assay [3] was greater than 10 µM in each case. Further, in assay [4], the “effect on transcription of heparanase” value is listed as “not or very weakly affected”. Also, the “effect on transcription of proangiogenic genes (FGF-1, FGF-2, VEGF, MMP-9)” value in [4] is “significant inhibitory effect”. For the same compound, the “Invasion assay inhibition (%) U87MG” value with U87MG cells (concentration tested 2.5 µM) is on record as 45 ± 4%. In addition, in the assay with U2OS cells (concentration tested 2.5 µM), the “Invasion assay inhibition (%) U2OS” value was found to be 75 ± 3%.

With `COc1cc(/N=N/c2cc(S(=O)(=O)O)cc3cc(S(=O)(=O)O)cc(O)c23)c(C)cc1NC(=O)Nc1cc(C)c(/N=N/c2cc(S(=O)(=O)O)cc3cc(S(=O)(=O)O)cc(O)c23)cc1OC` [Compound 16], the inhibition at 10 µM is 93 ± 1% with HT1080 cells (Homo sapiens, HT-1080); 10 ± 4% in the assay on U87MG cells (Homo sapiens, U-87 MG); less than 0% in the assay on U2OS cells (Homo sapiens, U2OS). The IC50 is greater than 10 µM in assay [1] (Homo sapiens); < 0.5 µM and 0.37 µM at human GS3 heparanase (setting [5]); greater than 10 µM in assay [2] (Homo sapiens, U-87 MG); greater than 10 µM in assay [3] (Homo sapiens, HT-1080).

Consider `Cc1ccc(C(=O)Nc2ccc(S(=O)(=O)O)c3cc(S(=O)(=O)O)cc(S(=O)(=O)O)c23)cc1NC(=O)c1cccc(NC(=O)Nc2cccc(C(=O)Nc3cc(C(=O)Nc4ccc(S(=O)(=O)O)c5cc(S(=O)(=O)O)cc(S(=O)(=O)O)c45)ccc3C)c2)c1` [suramin, reference compound], for which the inhibition at 10 µM in the assay with HT1080 cells (Homo sapiens, HT-1080) is 22 ± 5%; in the assay with U87MG cells (Homo sapiens, U-87 MG), less than 0%; in the assay on U2OS cells (Homo sapiens, U2OS), less than 0%. The IC50 was greater than 10 µM in assay [1] (Homo sapiens); greater than 10 µM in [2] (Homo sapiens, U-87 MG); greater than 10 µM in assay [3] (Homo sapiens, HT-1080).

For the compound `O=C(Nc1ccc(-c2nc3ccccc3[nH]2)cc1)c1ccc(C(=O)Nc2ccc(-c3nc4ccccc4[nH]3)cc2)cc1` [Compound 61], in the assay with HT1080 cells (concentration tested 2.5 µM), the “Invasion assay inhibition (%) HT1080” value is listed as 41 ± 3%. Also, the IC50 in assay [1], in assay [2] and in assay [3] was greater than 10 µM each time. Also, the “effect on transcription of heparanase” value in assay [4] is listed as “not or very weakly affected”. The “effect on transcription of proangiogenic genes (FGF-1, FGF-2, VEGF, MMP-9)” value in [4] is “significant inhibitory effect”. Moreover, the “Invasion assay inhibition (%) U87MG” value in the assay with U87MG cells (concentration tested 2.5 µM) is reported as 43 ± 5%. In the assay with U2OS cells (concentration tested 2.5 µM), the “Invasion assay inhibition (%) U2OS” value is on record as 80 ± 2%.

For `O=C(O)COc1ccc(N2C(=O)c3ccc(Oc4ccc5c(c4)C(=O)N(c4ccc(OCC(=O)O)cc4)C5=O)cc3C2=O)cc1` [Compound 37], the IC50 at human GS3 heparanase (Table S1, fondaparinux assay on GS3 heparanase, read-out: IC50 (M) ± SD) is greater than 5 µM.

On to `O=C(Nc1ccccc1C(=O)O)c1ccc2c(c1)C(=O)N(c1ccc(Oc3ccc(N4C(=O)c5ccc(C(=O)Nc6ccccc6C(=O)O)cc5C4=O)cc3)cc1)C2=O` [Compound 23], for which the “% inhib @25 M ± SD” value on human GS3 heparanase (Table S1, fixed concentration 25 µM (25 M [sic])) is recorded as 96 ± 3%.

As to `O=C(O)c1ccc(Oc2ccc3c(c2)C(=O)N(c2ccc(Oc4ccc(N5C(=O)c6ccc(Oc7ccc(C(=O)O)cc7)cc6C5=O)cc4)cc2)C3=O)cc1` [Compound 34], at human GS3 heparanase (setting [5]), the IC50 is 3.15 ± 0.28 µM.

Consider `O=C(O)Cc1ccc2oc(-c3ccc(NC(=O)Nc4ccc(-c5nc6cc(CC(=O)O)ccc6o5)cc4F)c(F)c3)nc2c1` [Compound 6], for which, on heparanase, the IC50 is 0.18 µM.
